Measurements as given in ChEMBL document CHEMBL1201862, “PubChem BioAssay data set” (2004).
The source made the active and inactive calls.

Legend:
[1] = biological target: Matrix metalloproteinase-14 (Homo sapiens, UniProt P50281); assay: Dose Response confirmation of uHTS hits for a small molecule inhibitors of MT1-MMP activation in a fluorescence assay set 1.; format: functional
[2] = biological target: T1, Histone-lysine N-methyltransferase NSD2 (Homo sapiens, UniProt O96028); format: biochemical
T1 sequence (O96028 whole entry): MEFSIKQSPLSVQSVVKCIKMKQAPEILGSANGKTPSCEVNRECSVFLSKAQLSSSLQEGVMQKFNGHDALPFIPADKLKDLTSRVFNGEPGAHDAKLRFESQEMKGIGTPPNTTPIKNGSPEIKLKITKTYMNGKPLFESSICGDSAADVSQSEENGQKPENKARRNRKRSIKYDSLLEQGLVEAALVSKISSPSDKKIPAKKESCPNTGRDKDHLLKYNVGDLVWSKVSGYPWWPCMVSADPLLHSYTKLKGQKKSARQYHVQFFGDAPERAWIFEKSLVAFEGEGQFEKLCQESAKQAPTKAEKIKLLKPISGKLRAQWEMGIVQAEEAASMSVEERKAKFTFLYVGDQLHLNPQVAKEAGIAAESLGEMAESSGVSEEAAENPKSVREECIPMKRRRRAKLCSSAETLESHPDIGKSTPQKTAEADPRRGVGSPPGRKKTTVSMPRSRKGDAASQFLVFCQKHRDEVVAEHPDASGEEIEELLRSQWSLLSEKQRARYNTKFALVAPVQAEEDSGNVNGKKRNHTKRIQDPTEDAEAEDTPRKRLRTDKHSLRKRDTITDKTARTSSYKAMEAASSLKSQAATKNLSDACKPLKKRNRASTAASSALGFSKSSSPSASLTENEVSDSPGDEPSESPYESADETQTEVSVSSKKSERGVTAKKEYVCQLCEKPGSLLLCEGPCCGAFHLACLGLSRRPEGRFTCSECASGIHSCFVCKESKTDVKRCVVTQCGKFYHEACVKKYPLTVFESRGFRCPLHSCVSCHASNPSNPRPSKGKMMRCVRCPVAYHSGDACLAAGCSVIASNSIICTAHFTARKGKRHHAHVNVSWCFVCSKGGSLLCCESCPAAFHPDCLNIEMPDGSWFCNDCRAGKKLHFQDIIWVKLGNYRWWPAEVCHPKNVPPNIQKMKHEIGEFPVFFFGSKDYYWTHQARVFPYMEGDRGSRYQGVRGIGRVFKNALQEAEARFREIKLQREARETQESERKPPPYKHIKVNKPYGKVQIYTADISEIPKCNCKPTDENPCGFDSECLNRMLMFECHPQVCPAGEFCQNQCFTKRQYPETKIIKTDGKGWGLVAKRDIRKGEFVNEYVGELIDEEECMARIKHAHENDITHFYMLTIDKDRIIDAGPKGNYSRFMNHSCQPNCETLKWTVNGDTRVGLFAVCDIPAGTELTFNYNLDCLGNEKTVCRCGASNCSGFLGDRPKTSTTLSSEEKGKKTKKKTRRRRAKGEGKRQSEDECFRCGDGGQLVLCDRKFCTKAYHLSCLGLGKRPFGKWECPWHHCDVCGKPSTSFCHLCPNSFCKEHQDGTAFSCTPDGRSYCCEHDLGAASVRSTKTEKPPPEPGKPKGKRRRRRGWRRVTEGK

Caspase-3 = biological target: T2, Caspase-3 (Homo sapiens, UniProt P42574); format: functional;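 note: Dose-response selectivity test against caspase-3 for candidate inhibitors of sentrin-specific proteases (SENPs)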
T2 sequence (P42574 whole entry): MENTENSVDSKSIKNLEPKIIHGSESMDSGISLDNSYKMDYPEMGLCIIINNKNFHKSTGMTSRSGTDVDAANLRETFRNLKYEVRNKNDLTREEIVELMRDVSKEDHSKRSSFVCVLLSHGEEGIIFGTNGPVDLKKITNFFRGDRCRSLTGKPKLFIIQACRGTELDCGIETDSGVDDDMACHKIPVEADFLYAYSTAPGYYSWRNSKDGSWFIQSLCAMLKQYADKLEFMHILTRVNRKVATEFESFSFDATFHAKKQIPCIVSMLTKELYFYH

[3] = biological target: T3, Sentrin-specific protease 7 (Homo sapiens, UniProt Q9BQF6); format: functional;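 note: Luminescence-based dose-response confirmation of ultra-high-throughput screening hits, measuring inhibition of SENP7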
T3 sequence (Q9BQF6 whole entry): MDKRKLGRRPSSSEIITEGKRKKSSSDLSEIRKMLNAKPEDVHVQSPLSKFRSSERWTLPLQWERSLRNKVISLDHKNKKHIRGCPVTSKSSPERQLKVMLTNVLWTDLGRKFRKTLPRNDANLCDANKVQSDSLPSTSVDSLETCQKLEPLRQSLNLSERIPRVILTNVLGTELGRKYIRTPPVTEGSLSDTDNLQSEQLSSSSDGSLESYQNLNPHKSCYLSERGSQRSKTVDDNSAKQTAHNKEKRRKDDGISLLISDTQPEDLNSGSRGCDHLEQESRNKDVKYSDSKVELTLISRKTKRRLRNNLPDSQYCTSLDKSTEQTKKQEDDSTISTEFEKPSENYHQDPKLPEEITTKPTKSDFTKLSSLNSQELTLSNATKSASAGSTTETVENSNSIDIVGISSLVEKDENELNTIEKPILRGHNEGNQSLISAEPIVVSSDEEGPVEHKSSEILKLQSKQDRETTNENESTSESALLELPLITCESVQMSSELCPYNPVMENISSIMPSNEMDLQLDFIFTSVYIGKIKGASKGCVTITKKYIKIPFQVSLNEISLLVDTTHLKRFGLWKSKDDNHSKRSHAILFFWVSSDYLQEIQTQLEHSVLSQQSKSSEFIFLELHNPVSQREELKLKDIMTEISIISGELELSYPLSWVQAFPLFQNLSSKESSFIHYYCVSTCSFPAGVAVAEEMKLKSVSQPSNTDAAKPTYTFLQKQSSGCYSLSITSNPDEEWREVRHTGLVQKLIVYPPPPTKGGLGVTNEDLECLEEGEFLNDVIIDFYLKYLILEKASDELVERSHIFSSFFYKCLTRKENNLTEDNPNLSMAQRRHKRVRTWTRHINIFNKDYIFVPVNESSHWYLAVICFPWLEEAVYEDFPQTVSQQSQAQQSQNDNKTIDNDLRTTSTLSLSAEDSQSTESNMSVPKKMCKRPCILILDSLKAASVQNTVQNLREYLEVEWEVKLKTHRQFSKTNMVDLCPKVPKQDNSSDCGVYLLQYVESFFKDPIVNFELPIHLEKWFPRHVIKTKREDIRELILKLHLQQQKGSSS

CC1CC(C)CN(C(=O)c2ccc3c(c2NCCO)C(=O)c2ccccc2C3=O)C1 (centres undefined)
IC50 [1]: 69 µM (inactive) | AC50 [2]: 19.3 µM (active)

CCC(=O)N(C1=C(NC)C(=O)c2ccccc2C1=O)C(C)C
IC50 (Caspase-3): 6.86 µM (active) | IC50 [3]: 33.2 µM (active)
